Experimental data as given in US20230002320A1, “COMPOUNDS AND COMPOSITIONS FOR TREATING CONDITIONS ASSOCIATED WITH STING ACTIVITY” (IFM Due, Inc., priority 2019, published 2023).

Target: hSTING (Homo sapiens, UniProt Q86WV6)
Test: STING reporter assay (luciferase) in THP1-Dual KO-IFNAR2 cells activated with 2'3' cGAMP
Type: cell-based
Conditions: 15 μM 2'3' cGAMP, 24 h
Description: STING pathway activation by the compounds described herein was measured using THP1-Dual™ cells (KO-IFNAR2).
THP1-Dual™ KO-IFNAR2 Cells (obtained from invivogen) were maintained in RPMI, 10% FCS, 5 ml P/S, 2 mM L-glut, 10 mM Hepes, and 1 mM sodium pyruvate. Compounds were spotted in empty 384 well tissue culture plates (Greiner 781182) by Echo for a final concentration of 0.0017-100 μM. Cells were plated into the TC plates at 40 μL per well, 2×10E6 cells/mL. For activation with STING ligand, 2′3′ cGAMP (MW 718.38, obtained from Invivogen), was prepared in Optimem media.
The following solutions were prepared for each 1×384 plate: • Solution A: 2 mL Optimem with one of the following stimuli: • 60 uL of 10 mM 2′3′ cGAMP ->150 μM stock • Solution B: 2 mL Optimem with 60 μL Lipofectamine 2000->Incubate 5 min at RT
2 mL of solution A and 2 ml Solution B was mixed and incubated for 20 min at room temperature (RT). 20 uL of transfection solution (A+B) was added on top of the plated cells, with a final 2′3′ cGAMP concentration of 15 μM. The plates were then centrifuged immediately at 340 g for 1 minute, after which they were incubated at 37° C., 5% CO2, >98% humidity for 24 h. Luciferase reporter activity was then measured. EC50 values were calculated by using standard methods known in the art.
(§1) Luciferase reporter assay: 10 μL of supernatant from the assay was transferred to white 384-plate with flat bottom and squared wells. one pouch of QUANTI-Luc™ Plus was dissolved in 25 mL of water. 100 μL of QLC Stabilizer per 25 mL of QUANTI-Luc™ Plus solution was added. 50 μL of QUANTI-Luc™ Plus/QLC solution per well was then added. Luminescence was measured on a Platereader (e.g., Spectramax I3X (Molecular Devices GF3637001)).
Luciferase reporter activity was then measured. EC50 values were calculated by using standard methods known in the art.
as §1, with “squared wells,” for “squared wells.”, “Luminescence is” for “Luminescence was”

hSTING, sequence (Q86WV6 whole entry R71H/G230A/H232R/R293Q, form open): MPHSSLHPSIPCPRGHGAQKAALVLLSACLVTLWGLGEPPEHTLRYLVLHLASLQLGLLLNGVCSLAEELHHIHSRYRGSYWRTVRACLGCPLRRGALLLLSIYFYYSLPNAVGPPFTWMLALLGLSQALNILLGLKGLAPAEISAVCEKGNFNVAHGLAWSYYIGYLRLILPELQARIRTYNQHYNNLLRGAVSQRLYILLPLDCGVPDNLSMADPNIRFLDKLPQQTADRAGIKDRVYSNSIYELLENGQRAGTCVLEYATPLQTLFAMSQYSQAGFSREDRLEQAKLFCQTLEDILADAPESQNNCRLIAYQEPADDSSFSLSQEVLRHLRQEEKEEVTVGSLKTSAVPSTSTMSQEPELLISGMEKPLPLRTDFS

SMILES	EC50 [nM]
CCn1cc(-c2ccc3[nH]cc(NC(=O)Nc4ccc(C(F)(F)F)cc4)c3c2)cn1 [Compound 237]	40 to 200
CC(C)(C#N)c1ccc(-c2ccc3[nH]cc(NC(=O)Nc4ccc(C(F)(F)F)cc4)c3c2)cc1 [Compound 217]	5000 to 100000
CC(C)(C)Oc1ccc(-c2ccc3[nH]cc(NC(=O)Nc4ccc(C(F)(F)F)cc4)c3c2)cc1 [Compound 288, 1-(5-(4-(tert-butoxy)phenyl)-1H-indol-3-yl)-3-(4-(trifluoromethyl)phenyl)urea]	200 to 1000
O=C(Nc1ccc(C(F)(F)F)cc1)Nc1c[nH]c2ccc(-c3ccc(F)cc3F)cc12 [Compound 242]	1000 to 5000
COCCn1cc(-c2ccc3[nH]cc(NC(=O)Nc4ccc(C(F)(F)F)cc4)c3c2)cn1 [Compound 236]	200 to 1000
O=C(Nc1ccc(C(F)(F)F)cc1)Nc1c[nH]c2ccc(-c3cccc(OC(F)(F)F)c3)cc12 [Compound 220]	200 to 1000
N#CCCn1cc(-c2ccc3[nH]cc(NC(=O)Nc4ccc(C(F)(F)F)cc4)c3c2)cn1 [Compound 232]	200 to 1000
CN(C)C(=O)c1ccc(-c2ccc3[nH]cc(NC(=O)Nc4ccc(C(F)(F)F)cc4)c3c2)cc1 [Compound 219]	200 to 1000
CC(C)n1cc(-c2ccc3[nH]cc(NC(=O)Nc4ccc(C5CCCCC5)nc4)c3c2)cn1 [Compound 243]	200 to 1000
O=C(Nc1ccc(C(F)(F)F)cc1)Nc1c[nH]c2ccc(-c3ccc(F)c(F)c3)cc12 [Compound 241]	1000 to 5000
CC(C)n1cc(-c2ccc3[nH]cc(NC(=O)Nc4ccc(C(F)(F)F)cc4)c3c2)cn1 [Compound 104, 1-(5-(1-isopropyl-1H-pyrazol-4-yl)-1H-indol-3-yl)-3-(4-(trifluoromethyl)phenyl)urea]	40 to 200
O=C(Nc1ccc(C(F)(F)F)cc1)Nc1c[nH]c2ccc(-c3cncc(Cl)c3)cc12 [Compound 229]	200 to 1000
Cn1ccc(-c2ccc3[nH]cc(NC(=O)Nc4ccc(C(F)(F)F)cc4)c3c2)n1 [Compound 214, 1-(5-(1-methyl-1H-pyrazol-3-yl)-1H-indol-3-yl)-3-(4-(trifluoromethyl)phenyl)urea]	1000 to 5000
CC(C)c1ccc(-c2ccc3[nH]cc(NC(=O)Nc4ccc(C(F)(F)F)cc4)c3c2)cc1 [Compound 223, 1-(5-(4-isopropylphenyl)-1H-indol-3-yl)-3-(4-(trifluoromethyl)phenyl)urea]	200 to 1000
O=C(Nc1ccc(C(F)(F)F)cc1)Nc1c[nH]c2ccc(-c3ccc(OC(F)F)cc3)cc12 [Compound 218]	200 to 1000
CN(C)C(=O)c1ccc(-c2ccc3[nH]cc(NC(=O)Nc4ccc(C(F)(F)F)cc4)c3c2)c(F)c1 [Compound 215]	200 to 1000
N#Cc1csc(-c2ccc3[nH]cc(NC(=O)Nc4ccc(C(F)(F)F)cc4)c3c2)c1 [Compound 216]	40 to 200
O=C(Nc1ccc(C(F)(F)F)cc1)Nc1c[nH]c2ccc(-c3cccc4cccnc34)cc12 [Compound 224, 1-(5-(quinolin-8-yl)-1H-indol-3-yl)-3-(4-(trifluoromethyl)phenyl)urea]	1000 to 5000
O=C(Nc1ccc(C(F)(F)F)cc1)Nc1c[nH]c2ccc(-c3ccc(CO)c(F)c3)cc12 [Compound 127, 1-(5-(3-fluoro-4-(hydroxymethyl)phenyl)-1H-indol-3-yl)-3-(4-(trifluoromethyl)phenyl)urea]	200 to 1000
O=C(Nc1ccc(C(F)(F)F)cc1)Nc1c[nH]c2cc(F)c(-c3cnn(C(F)F)c3)cc12 [Compound 212, 1-(5-(1-(difluoromethyl)-1H-pyrazol-4-yl)-6-fluoro-1H-indol-3-yl)-3-(4-(trifluoromethyl)phenyl)urea]	40 to 200

SMILES	EC50 [nM]
Nc1cc(-c2ccc3[nH]cc(NC(=O)Nc4ccc(C(F)(F)F)cc4)c3c2)ccn1 [Compound 274, 1-(5-(2-aminopyridin-4-yl)-1H-indol-3-yl)-3-(4-(trifluoromethyl)phenyl)urea]	1000 to 5000
O=C(Nc1ccc(C(F)(F)F)cc1)Nc1c[nH]c2ccc(-c3ccc(Cl)c(Cl)c3)cc12 [Compound 239]	1000 to 5000
O=C(Nc1ccc(C(F)(F)F)cc1)Nc1c[nH]c2ccc(-c3cnn(CC4CC4)c3)cc12 [Compound 235]	40 to 200
O=C(Nc1ccc(C(F)(F)F)cc1)Nc1c[nH]c2ccc(-c3cnn(-c4ccccc4)c3)cc12 [Compound 234]	40 to 200
O=C(Nc1ccc(C(F)(F)F)cc1)Nc1c[nH]c2ccc(-c3cccnc3)cc12 [Compound 230]	200 to 1000
COCc1cncc(-c2ccc3[nH]cc(NC(=O)Nc4ccc(C(F)(F)F)cc4)c3c2)c1 [Compound 228]	200 to 1000
O=C(Nc1ccc(C(F)(F)F)cc1)Nc1c[nH]c2ccc(-c3c(F)cccc3F)cc12 [Compound 222]	1000 to 5000
O=C(Nc1ccc(C(F)(F)F)cc1)Nc1c[nH]c2ccc(-c3ccc(CO)cc3)cc12 [Compound 282, 1-(5-(4-(hydroxymethyl)phenyl)-1H-indol-3-yl)-3-(4-(trifluoromethyl)phenyl)urea]	1000 to 5000
CCCCCCc1ccc(-c2ccc3[nH]cc(NC(=O)Nc4ccc(C(F)(F)F)cc4)c3c2)cc1 [Compound 211, 1-(5-(4-hexylphenyl)-1H-indol-3-yl)-3-(4-(trifluoromethyl)phenyl)urea]	200 to 1000
CC(=O)c1ccc(-c2ccc3[nH]cc(NC(=O)Nc4ccc(C(F)(F)F)cc4)c3c2)s1 [Compound 231]	200 to 1000
O=C(Nc1ccc(C(F)(F)F)cc1)Nc1c[nH]c2ccc(-c3cc(F)cc(F)c3)cc12 [Compound 240]	200 to 1000
CC(C)n1cc(-c2cc3c(NC(=O)Nc4ccc(C(F)(F)F)cc4)c[nH]c3cc2F)cn1 [Compound 213]	200 to 1000
O=C(Nc1ccc(C(F)(F)F)cc1)Nc1c[nH]c2ccc(-c3cc(Cl)nc(Cl)c3)cc12 [Compound 227]	200 to 1000
CCCc1ccc(-c2ccc3[nH]cc(NC(=O)Nc4ccc(C(F)(F)F)cc4)c3c2)cc1 [Compound 238]	1000 to 5000
O=C(Nc1ccc(C(F)(F)F)cc1)Nc1c[nH]c2ccc(-c3ccccc3)cc12 [Compound 101, 1-(5-phenyl-1H-indol-3-yl)-3-(4-(trifluoromethyl)phenyl)urea]	200 to 1000
O=C(Nc1ccc(C(F)(F)F)cc1)Nc1c[nH]c2ccc(-c3cccc(Cl)c3)cc12 [Compound 226]	200 to 1000
COc1cccc(-c2ccc3[nH]cc(NC(=O)Nc4ccc(C(F)(F)F)cc4)c3c2)c1 [Compound 225]	200 to 1000
O=C(Nc1ccc(C(F)(F)F)cc1)Nc1c[nH]c2ccc(-c3cccc4ncccc34)cc12 [Compound 221, 1-(5-(quinolin-5-yl)-1H-indol-3-yl)-3-(4-(trifluoromethyl)phenyl)urea]	200 to 1000
CC(C)(O)Cn1cc(-c2ccc3[nH]cc(NC(=O)Nc4ccc(C(F)(F)F)cc4)c3c2)cn1 [Compound 297, 1-(5-(1-(2-hydroxy-2-methylpropyl)-1H-pyrazol-4-yl)-1H-indol-3-yl)-3-(4-(trifluoromethyl)phenyl)urea]	200 to 1000
